# Key:
# Assay type in all cases: cell-based
# [1] = system: human neuroblastoma SK-N-MC cells; assay: Protection against neuronal death induced by oxidative stress (xanthine/xanthine oxidase), WST-1
# Procedure: (§1) The assay was performed on human neuroblastoma SK-N-MC cells in culture from the American Type Culture Collection (ATCC), in all cases strict rules of sterility were followed and the manipulation was performed in class II biological safety cabinets following European standard EN 12469. The cells were maintained in the following culture medium: Minimum Essential Medium Eagle (MEM) supplemented with 1 mM sodium pyruvate, 2 mM L-glutamine, 0.1 mM non-essential amino acids, 0.05 mg/ml gentamicin and 10% fetal bovine serum.
# The inhibition caused by compound NST0037 of cell death caused by treatment with xanthine/xanthine oxidase which generates oxidative damage (causes free radicals such as hydrogen peroxide, superoxide anion, hydroxyl radical), which triggers cell death, was analyzed. These cells, not exceeding 15 passages, were seeded on 96-well plates treated for adherent cells with a cell concentration of 5×10^4 cells/well; 3 wells of the plate were seeded for each condition of the assay.
# After 24 hours of cell incubation at 37° C. and 5% CO2, the cell treatments were performed with 100 μl of total volume for the following conditions: • Control: culture medium (medium) • Xanthine/xanthine oxidase (XXO): medium plus 10 μM xanthine/60 mU/mL xanthine oxidase, causing the death of 50% of the cells. • XXO plus NST0037: medium plus XXO (10 μM/60 mU/mL) plus NST0037 at 1, 4, 10, 20, 40 or 100 μM.
# The cells were incubated (at 37° C. and 5% CO2) with these treatments for 22 hours, after which time the WST-1 reagent (Roche) was added. The Test WST-1 is based on the measurement of metabolic activity. Cell damage causes the loss of the ability of cells to obtain the energy necessary to maintain their metabolic functions and cell growth, therefore the metabolically active (live) cells reduce tetrazolium salt to formazan by means of the succinate-tetrazolium reductase system (of the mitochondrial respiratory chain). The formazan which is formed can be detected colorimetrically since it has an absorbance of 440 nm. The reading was taken in a plate reader at 440 nm 2 hours after adding the reagent.
# The assay was performed on human neuroblastoma SK-N-MC cells in culture from the American Type Culture Collection (ATCC), in all cases strict rules of sterility were followed and the manipulation was performed in class II biological safety cabinets following European standard EN 12469. […]
# The effect of mevalonate on the protection caused by compound NST0037 against cell death caused by the treatment with xanthine/xanthine oxidase generating oxidative damage and cell death was analyzed. […]
# [2] = system: SK-N-MC (human neuroblastoma) line; assay: Total cholesterol levels in neuronal cell line; details: acid compounds, 20 hours, absence of FBS
# Procedure: To carry out this assay, the compounds were activated with NaOH until the lactone form was completely opened.
# Both the Hep G2 (human hepatocarcinoma) line and the SK-N-MC (human neuroblastoma) line were obtained from the American Type Culture Collection (ATCC no. HB-8065 and HTB-10 respectively). In all cases strict rules of sterility were followed and the manipulation was performed in class II biological safety cabinets following European standard EN 12469. The cells maintained in passage were seeded in 96-well plates in MEM supplemented with 10% FBS, 2 mM L-glutamine, 1 mM sodium pyruvate, 0.1 mM non-essential amino acids and 0.05 mg/mL gentamicin. In the case of HepG2, 4×10^4 cells/well were seeded and in the case of SK-N-MC 5×10^4 cells/well were seeded. After 24 hours had elapsed from the seeding, the cells were deprived of FBS for 8 hours. The cells were then incubated with the treatments at various concentrations for 20 hours. After the incubation period, the cells were washed with PBS and lysed with a phosphate buffer with 0.5% Triton X-100. […]
# The total cholesterol was quantified by means of enzymatic and fluorometric techniques. […] The fluorescence intensity was determined at 530 nm of excitation and 580 nm of emission by means of a fluorometer. The results were normalized by protein, which was determined by means of the BCA technique.
# [3] = system: human neuroblastoma SK-N-MC cells; assay: Protection against neuronal death induced by inhibition of succinate dehydrogenase (3-NP), WST-1; details: 40 μM NST0037; 30 μM 3-NP
# Procedure: as §1
# The inhibition caused by compound NST0037 of cell death caused by treatment with 3-Nitropropionic (3-NP) acid was analyzed. 3-NP is an irreversible inhibitor of the succinate dehydrogenase enzyme which in animal models causes oxidative stress and apoptotic cell death in the striatum, which mimics neurochemical and anatomical changes associated with Huntington's disease (HD). […]
# The cells were incubated (at 37° C. and 5% CO2) with these treatments for 22 hours, after which time the WST-1 reagent (Roche) was added. […] The formazan which is formed can be detected colorimetrically since it has an absorbance of 440 nm. The reading was taken in a plate reader at 440 nm 2 hours after adding the reagent.
smiles,measurement,setting,value
"CCC(CC)C(=O)O[C@H]1C[C@@H](C)C=C2C=C[C@H](C)[C@H](CC[C@@H]3C[C@@H](O)CC(=O)O3)[C@H]21 [NST0037, (1S,2S,6R,8S,8aR)-1,2,6,7,8,8a-hexahydro-3,7-dimethyl-8-[2-[(2R,4R)-tetrahydro-4-hydroxy-6-oxo-2H-pyran-2-yl]ethyl]-1-naphthalenyl-2-ethyl-butyrate]",maximum protection against death caused by XXO,"[1]; 20 μM NST0037, 10 μM xanthine/60 mU/mL xanthine oxidase, 22 h",78%
same,protection against death caused by XXO,[1]; 40 μM NST0037 (Example 14),57%
same,reduction of total cholesterol levels,[2],reductions of cholesterol with both compounds were similar
same,protection against death caused by 3-NP,[3],41%

# Source: patent US20140309295A1, “ANTIEPILEPTIC, HYPOCHOLESTEROLEMIC AND NEUROPROTECTIVE COMPOUND” (NEURON BIOPHARMA, S.A., priority 2009, published 2014)
